Measurements published in patent US5245034A, “Compound having vessel smooth muscle relaxation activity” (Hidaka; Kiroyoshi, priority 1988, dated 1993).
Like-named read-outs stand apart in the source and are kept apart here.

Key:
[1] = target: Calmodulin-Dependent Phosphodiesterase (Ca^2+ PDE); assay: Calmodulin-Dependent Phosphodiesterase Inhibition (Ca^2+ PDE); format: biochemical, rat; conditions: [^3 H]-cGMP, 30° C.
In short: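 Partially purified rat brain Ca²⁺ PDE with calf brain calmodulin, Tris-HCl pH 8.0, MgCl2, CaCl2; [³H]-cGMP substrate, 15 min at 30 °C. Product converted by 5'-nucleotidase, [³H]-guanosine isolated on cation exchange and counted. IC50 as μM giving 50% inhibition.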

[2] = system: superior mesenteric artery (contracted by potassium chloride); assay: Vessel Smooth Muscle Relaxation Action (V.R.); format: cell-based, rabbit; conditions: Oryctolagus cuniculus, read-out: V.R. (ED50)
Source text: The specimen was suspended by loading a strain in Krebs-Henseleit solution through which an oxygen gas containing 5% carbon dioxide was bubbled. The specimen was contracted by adding potassium chloride to maintain a predetermined strain. Thereafter, a test compound was cumulatively administrated.

[3] = system: washed platelets; assay: Platelet Agglutination Inhibition (P.A.), collagen-induced; format: cell-based, human (healthy person); conditions: Homo sapiens, read-out: P.A. (IC50)
Experimental: To this suspension was added one sixth volume of ACD solution, and the whole was further centrifuged at 1500×G for 5 minutes to prepare a platelet pellet. The platelet pellet was then suspended in a modified HEPES Tyrode solution to obtain about 3×10^5 /μl in washed platelet suspension.
To 270 μl of the washed platelet suspension was added 3 μl of a solution of a test compound dissolved in an appropriate medium in different concentration, and the mixture was pre-incubated at 37° C. for 2 minutes.
As a control, the above-mentioned procedure was carried out except that the test medium without a test compound was used, and the absorbance before addition of collagen and the maximum absorbance after addition of collagen were measured, and the difference between both absorbances was taken as 100% agglutination.
For test compound, the absorbance before an addition of collagen and the maximum absorbance after an addition of collagen were measured, and a percent of the inhibition was determined, compared with the control.

[4] = concentration relaxing KCl-contracted strain to 50%, cumulative administration
[5] = washed platelets, collagen, 37° C.

Compound	IC50 [1]	EC50 [2, 4]	IC50 [3, 5]	EC50 [2]	IC50 [3]
CN(C(Cc1ccc(O)cc1)CN1CCCN(C(=O)OCc2ccccc2)CC1)S(=O)(=O)c1cccc2cnccc12 (stereo not drawn) [Example 113]	1.2 µM	0.88 µM	20 µM	–	–
CC(C=Cc1ccc(Cl)cc1Cl)NCCNS(=O)(=O)c1cccc2cnccc12 (stereo not drawn) [Example 156, N-[2-(2,4-Dichloro-α-Methylcinnamylamino)Ethyl]-5-Isoquinolinesulfonamide]	19 µM	4.4 µM	19 µM	–	–
CC(C=Cc1cccc(Cl)c1)NCCNS(=O)(=O)c1cccc2cnccc12 (stereo not drawn) [Example 157]	8.6 µM	3.2 µM	36 µM	–	–
CC(C=Cc1ccc([N+](=O)[O-])cc1)NCCNS(=O)(=O)c1cccc2cnccc12 (stereo not drawn) [Example 159]	92 µM	5.1 µM	24 µM	–	–
CC(C=Cc1ccc(F)cc1)NCCNS(=O)(=O)c1cccc2cnccc12 (stereo not drawn) [Example 166, N-[2-(4-Fluoro-α-Methylcinnamylamino)Ethyl]-5-Isoquinolinesulfonamide]	–	1.4 µM	90 µM	–	–
CC(C=Cc1ccc(Br)cc1)NCCNS(=O)(=O)c1cccc2cnccc12 (stereo not drawn) [Example 167]	–	1.2 µM	52 µM	–	–
CC(C=Cc1ccc(C(C)C)cc1)NCCNS(=O)(=O)c1cccc2cnccc12 (stereo not drawn) [Example 168]	–	3.6 µM	26 µM	–	–
O=S(=O)(NCCNCC=Cc1ccc(Br)cc1)c1cccc2cnccc12 [Example 176, N-[2-(4-Bromophenylcinnamylamino)ethyl]-5-Isoquinolinesulfonamide]	8.5 µM	–	–	1.2 µM	55 µM

Now from value to compound, other results behind:

IC50 [1]	EC50 [2, 4]	IC50 [3, 5]	Compound	EC50 [2]	IC50 [3]
9.4 µM	1 µM	51 µM	O=S(=O)(NCCNCC=Cc1ccc(Cl)cc1)c1cccc2cnccc12 [Example 172, N-[2-(4-Chlorocinnamylamino)ethyl]-5-Isoquinolinesulfonamide]	–	–
24 µM	2.7 µM	56 µM	CC(C)c1ccc(C=CCNCCNS(=O)(=O)c2cccc3cnccc23)cc1 [Example 177]	–	–
7.8 µM	2.8 µM	51 µM	O=S(=O)(NCCNCC=Cc1ccc(C(F)(F)F)cc1)c1cccc2cnccc12 [Example 179, N-[2-(4-Trifluoromethylcinnamylamino)Ethyl]-5-Isoquinolinesulfonamide]	–	–
4.7 µM	8.4 µM	38 µM	O=S(=O)(NCCNCC=CC=CC=Cc1ccc(C(F)(F)F)cc1)c1cccc2cnccc12 [Example 181]	–	–
